The text below walks through data of patent US7833967B2, “Synthetic antimicrobial polypeptides” (priority 2003, dated 2010).

One experiment deals with E. coli TOP10. In words: Suicide expression system (SES) growth inhibition. Type of experiment: cell-based. To be noted: Table 4; variants of SEQ ID NO:10, re-tested in the Bioscreen C.
Consider “166 (RRRPLRPPVRPPFRPPVRPPVRPPLRP; Synthetic antimicrobial peptide) [compound 166]”, for which the “Growth inhibition (%)” value came to 55%.

As for “167 (RRRPFRPPLRPPFRPPLRPPLRPPVRP; Synthetic antimicrobial peptide) [compound 167]”, the “Growth inhibition (%)” value came out at 58%.

Take “168 (RRRPLRPPFRPPIRPPVRPPLRPPFRP; Synthetic antimicrobial peptide) [compound 168]”: the “Growth inhibition (%)” value is 71%.

For “169 (RRRPIRPPLRPPVRPPFRPPVRPPFRP; Synthetic antimicrobial peptide) [compound 169]”, the “Growth inhibition (%)” value stood at 67%.

As for “170 (RRRPIRPPFRPPFRPPFRPPVRPPFRP; Synthetic antimicrobial peptide) [compound 170]”, the “Growth inhibition (%)” value was found to be 80%.

Take “171 (RRRPIRPPIRPPIRPPIRPPFRPPFRP; Synthetic antimicrobial peptide) [compound 171]”: the “Growth inhibition (%)” value amounted to 77%.

Regarding “172 (RRRPFRPPIRPPFRPPIRPPVRPPFRP; Synthetic antimicrobial peptide) [compound 172]”, the “Growth inhibition (%)” value came out at 82%.

Turning to “173 (RRRPLRPPIRPPLRPPVRPPFRPPFRP; Synthetic antimicrobial peptide) [compound 173]”, the “Growth inhibition (%)” value is recorded as 81%.

For the substance “174 (RRRPIRPPIRPPFRPPLRPPFRPPFRP; Synthetic antimicrobial peptide) [compound 174]”, the “Growth inhibition (%)” value is reported as 80%.

For the substance “175 (RRRPFRPPVRPPFRPPLRPPFRPPFRP; Synthetic antimicrobial peptide) [compound 175]”, the “Growth inhibition (%)” value is reported as 77%.

Consider “176 (RRRPLRPPVRPPIRPPIRPPFRPPFRP; Synthetic antimicrobial peptide) [compound 176]”, for which the “Growth inhibition (%)” value was found to be 81%.

As for “177 (RRRPFRPPIRPPFRPPIRPPVRPPIRP; Synthetic antimicrobial peptide) [compound 177]”, the “Growth inhibition (%)” value was found to be 75%.

Regarding “178 (RRRPLRPPFRPPVRPPFRPPFRPPFRP; Synthetic antimicrobial peptide) [compound 178]”, the “Growth inhibition (%)” value is on record as 81%.

For “179 (RRRPFRPPIRPPIRPPFRPPFRPPFRP; Synthetic antimicrobial peptide) [compound 179]”, the “Growth inhibition (%)” value stood at 87%.

For the substance “180 (RRRPLRPPIRPPIRPPIRPPFRPPFRP; Synthetic antimicrobial peptide) [compound 180]”, the “Growth inhibition (%)” value worked out at 76%.

For the substance “181 (RRRPIRPPIRPPFRPPFRPPFRPPFRP; Synthetic antimicrobial peptide) [compound 181]”, the “Growth inhibition (%)” value was found to be 83%.

Regarding “182 (RRRPFRPPIRPPFRPPIRPPVRPPFRP; Synthetic antimicrobial peptide) [compound 182]”, the “Growth inhibition (%)” value is 83%.

Regarding “183 (RRRPFRPPVRPPLRPPFRPPFRPPFRP; Synthetic antimicrobial peptide) [compound 183]”, the “Growth inhibition (%)” value is on record as 80%.

For the substance “184 (RRRPIRPPIRPPFRPPLRPPFRPPFRP; Synthetic antimicrobial peptide) [compound 184]”, the “Growth inhibition (%)” value was 78%.

As to “185 (RRRPLRPPIRPPIRPPFRPPFRPPFRP; Synthetic antimicrobial peptide) [compound 185]”, the “Growth inhibition (%)” value is 79%.

For the substance “186 (RRRPIRPPIRPPIRPPFRPPFRPPFRP; Synthetic antimicrobial peptide) [compound 186]”, the “Growth inhibition (%)” value amounted to 77%.

Take “187 (RRRPIRPPFRPPFRPPVRPPFRPPFRP; Synthetic antimicrobial peptide) [compound 187]”: the “Growth inhibition (%)” value turned out to be 85%.

For “188 (RRRPFRPPFRPPIRPPVRPPVRPPFRP; Synthetic antimicrobial peptide) [compound 188]”, the “Growth inhibition (%)” value turned out to be 83%.

For “189 (RRRPFRPPFRPPIRPPVRPPIRPPFRP; Synthetic antimicrobial peptide) [compound 189]”, the “Growth inhibition (%)” value is 79%.

For “190 (RRRPFRPPIRPPFRPPIRPPFRPPFRP; Synthetic antimicrobial peptide) [compound 190]”, the “Growth inhibition (%)” value is on record as 83%.

For the substance “191 (RRRPFRPPFRPPIRPPFRPPVRPPFRP; Synthetic antimicrobial peptide) [compound 191]”, the “Growth inhibition (%)” value is on record as 77%.

On to “192 (RRRPFRPPFRPPFRPPVRPPVRPPFRP; Synthetic antimicrobial peptide) [compound 192]”, for which the “Growth inhibition (%)” value came to 92%.

For the substance “193 (RRRPFRPPIRPPFRPPIRPPFRPPFRP; Synthetic antimicrobial peptide) [compound 193]”, the “Growth inhibition (%)” value was found to be 81%.

Take “194 (RRRPLRPPFRPPFRPPIRPPFRPPFRP; Synthetic antimicrobial peptide) [compound 194]”: the “Growth inhibition (%)” value worked out at 81%.

Consider “195 (RRRPFRPPIRPPFRPPVRPPVRPPVRP; Synthetic antimicrobial peptide) [compound 195]”, for which the “Growth inhibition (%)” value turned out to be 76%.

Consider “196 (RRRPFRPPLRPPIRPPIRPPFRPPFRP; Synthetic antimicrobial peptide) [compound 196]”, for which the “Growth inhibition (%)” value amounted to 77%.

Take “197 (RRRPFRPPFRPPFRPPFRPPLRPPFRP; Synthetic antimicrobial peptide) [compound 197]”: the “Growth inhibition (%)” value is on record as 86%.

Turning to “198 (RRRPFRPPFRPPFRPPFRPPFRPPFRP; Synthetic antimicrobial peptide) [compound 198]”, the “Growth inhibition (%)” value was determined as 91%.

As to “199 (RRRPLRPPIRPPFRPPVRPPFRPPFRP; Synthetic antimicrobial peptide) [compound 199]”, the “Growth inhibition (%)” value is 80%.

With “200 (RRRPFRPPFRPPLRPPFRPPVRPPFRP; Synthetic antimicrobial peptide) [compound 200]”, the “Growth inhibition (%)” value was determined as 87%.

Consider “201 (RRRPFRPPIRPPIRPPFRPPIRPPFRP; Synthetic antimicrobial peptide) [compound 201]”, for which the “Growth inhibition (%)” value worked out at 78%.

Consider “202 (RRRPFRPPFRPPFRPPLRPPFRPPFRP; Synthetic antimicrobial peptide) [compound 202]”, for which the “Growth inhibition (%)” value turned out to be 84%.

Regarding “203 (RRRPFRPPIRPPFRPPIRPPFRPPFRP; Synthetic antimicrobial peptide) [compound 203]”, the “Growth inhibition (%)” value amounted to 79%.

With “204 (RRRPLRPPLRPPFRPPIRPPFRPPFRP; Synthetic antimicrobial peptide) [compound 204]”, the “Growth inhibition (%)” value came out at 76%.

For “205 (RRRPFRPPFRPPIRPPVRPPFRPPFRP; Synthetic antimicrobial peptide) [compound 205]”, the “Growth inhibition (%)” value is on record as 77%.

Take “206 (RRRPFRPPFRPPFRPPFRPPFRPPFRP; Synthetic antimicrobial peptide) [compound 206]”: the “Growth inhibition (%)” value came to 77%.

Staying with this experiment, now noted: Table 5; mixed-motif library, re-tested in the Bioscreen C.
Turning to “207 (RRRPPRFPRPFPIRPPPRFPRPIPFRP; Synthetic antimicrobial peptide) [compound 207]”, the “Growth inhibition (%)” value worked out at 93%.

On to “208 (RRRPPRFPRPFPVRPPPRFPRPIPVRP; Synthetic antimicrobial peptide) [compound 208]”, for which the “Growth inhibition (%)” value is given as 95%.

“209 (RRRPPRIPRPFPIRPPPRFPRPIPFRP; Synthetic antimicrobial peptide) [compound 209]”: the “Growth inhibition (%)” value was 78%.

“210 (RRRPPRIPRPIPVRPPPRIPRPIPFRP; Synthetic antimicrobial peptide) [compound 210]”: the “Growth inhibition (%)” value amounted to 94%.

On to “211 (RRRPPRLPRPFPFRPPPRFPRPIPFRP; Synthetic antimicrobial peptide) [compound 211]”, for which the “Growth inhibition (%)” value was found to be 96%.

“212 (RRRPPRLPRPFPFRPPPRFPRPVPIRP; Synthetic antimicrobial peptide) [compound 212]”: the “Growth inhibition (%)” value is listed as 96%.

As for “213 (RRRPPRLPRPFPFRPPPRLPRPFPIRP; Synthetic antimicrobial peptide) [compound 213]”, the “Growth inhibition (%)” value was determined as 94%.

As for “214 (RRRPPRLPRPFPFRPPPRLPRPIPLRP; Synthetic antimicrobial peptide) [compound 214]”, the “Growth inhibition (%)” value amounted to 95%.

Regarding “215 (RRRPPRLPRPFPFRPPPRPRPFPFRP; Synthetic antimicrobial peptide) [compound 215]”, the “Growth inhibition (%)” value is reported as 94%.

Consider “216 (RRRPPRLPRPFPFRPPPRPRPLPVRP; Synthetic antimicrobial peptide) [compound 216]”, for which the “Growth inhibition (%)” value was found to be 95%.

On to “217 (RRRPPRLPRPFPFRPPPRVPRPFPLRP; Synthetic antimicrobial peptide) [compound 217]”, for which the “Growth inhibition (%)” value amounted to 93%.

In the case of “218 (RRRPPRLPRPFPFRPPPRVPRPIPVRP; Synthetic antimicrobial peptide) [compound 218]”, the “Growth inhibition (%)” value is listed as 93%.

On to “219 (RRRPPRLPRPFPFRPPPRVPRPLPFRP; Synthetic antimicrobial peptide) [compound 219]”, for which the “Growth inhibition (%)” value is 93%.

As for “220 (RRRPPRLPRPFPIRPPPRFPRPFPVRP; Synthetic antimicrobial peptide) [compound 220]”, the “Growth inhibition (%)” value was 90%.

As to “221 (RRRPPRLPRPFPIRPPPRFPRPLPFRP; Synthetic antimicrobial peptide) [compound 221]”, the “Growth inhibition (%)” value is on record as 93%.

In the case of “222 (RRRPPRLPRPFPIRPPPRFPRPVPLRP; Synthetic antimicrobial peptide) [compound 222]”, the “Growth inhibition (%)” value worked out at 93%.

For the substance “223 (RRRPPRLPRPFPIRPPPRLPRPLPFRP; Synthetic antimicrobial peptide) [compound 223]”, the “Growth inhibition (%)” value is given as 90%.

On to “224 (RRRPPRLPRPFPIRPPPRVPRPFPVRP; Synthetic antimicrobial peptide) [compound 224]”, for which the “Growth inhibition (%)” value is 93%.

With “225 (RRRPPRLPRPFPIRPPPRVPRPIPIRP; Synthetic antimicrobial peptide) [compound 225]”, the “Growth inhibition (%)” value is recorded as 97%.
